Two compounds from patent US10538567B2, “Compounds as peptidic trigonal GLP1/glucagon/GIP receptor agonists” (priority 2016, dated 2020) can be followed below.

One data set deals with T1, human GLP-1 receptor (Homo sapiens, UniProt P43220).
T1 construct: expressed in transfected cells; host or cells: HEK-293
The experiment in a line: cAMP response (HTRF) of HEK-293 cells stably expressing human GLP-1 receptor. It is filed as cell-based. To be noted: Table 8; read-out: EC50 hGLP-1R. On the procedure: (§1) cAMP content of cells was determined using a kit from Cisbio Corp. (cat. no. 62AM4PEJ) based on HTRF (Homogenous Time Resolved Fluorescence). For preparation, cells were split into T175 culture flasks and grown overnight to near confluency in medium (DMEM/10% FBS). Medium was then removed and cells washed with PBS lacking calcium and magnesium, followed by proteinase treatment with accutase (Sigma-Aldrich cat. no. A6964). Detached cells were washed and resuspended in assay buffer (1×HBSS; 20 mM HEPES, 0.1% BSA, 2 mM IBMX) and cellular density determined. They were then diluted to 400000 cells/ml and 25 μl-aliquots dispensed into the wells of 96-well plates. For measurement, 25 μl of test compound in assay buffer was added to the wells, followed by incubation for 30 minutes at room temperature.
(§2) Potencies of peptidic compounds at the GLP-1, glucagon and GIP receptors were determined by exposing cells expressing human glucagon receptor (hGlucagon R), human GIP receptor (hGIP-R) or human GLP-1 receptor (hGLP-1 R) to the listed compounds at increasing concentrations and measuring the formed cAMP as described in Methods.
(TR-FRET usually uses a lanthanide donor and a delayed reading to cut background.)

The next data set deals with T2, human GIP receptor (Homo sapiens, UniProt P48546).
T2 construct: expressed in transfected cells; host or cells: HEK-293
T2 sequence (P48546 22-466): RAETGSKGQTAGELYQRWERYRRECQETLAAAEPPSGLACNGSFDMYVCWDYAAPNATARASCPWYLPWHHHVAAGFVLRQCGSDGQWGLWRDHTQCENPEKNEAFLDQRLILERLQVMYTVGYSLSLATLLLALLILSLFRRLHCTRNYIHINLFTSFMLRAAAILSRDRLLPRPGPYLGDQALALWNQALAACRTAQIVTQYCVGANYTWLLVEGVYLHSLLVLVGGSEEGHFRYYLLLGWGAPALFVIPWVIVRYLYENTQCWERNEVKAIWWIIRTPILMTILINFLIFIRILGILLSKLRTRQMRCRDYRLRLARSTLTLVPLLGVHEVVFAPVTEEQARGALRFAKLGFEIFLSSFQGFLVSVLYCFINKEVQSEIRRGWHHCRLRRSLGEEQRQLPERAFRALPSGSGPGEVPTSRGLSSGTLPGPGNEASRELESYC
Put plainly: cAMP response (HTRF) of HEK-293 cells stably expressing human GIP receptor. In kind it is cell-based. Conditions: Table 8; read-out: EC50 hGIP R. On the procedure: Agonism of compounds for the receptors was determined by functional assays measuring cAMP response of HEK-293 cell lines stably expressing human GLP-1, GIP or glucagon receptor.
as §1, with “temperature. After addition of HTRF reagents diluted in lysis buffer (kit components), the plates were incubated for 1 hr, followed by measurement of the fluorescence ratio at 665/616 nm. In vitro potency of agonists was quantified by determining the concentrations that caused 50% activation of maximal response (EC50).” for “temperature.”
as §2

Data set [1] can be described thus: Chemical stability assessment, UPLC-UV purity loss in buffer system A. It is filed as physicochemical. Conditions: 1 mg/ml, 25 mM acetate buffer pH 4.5 with m-cresol. On the procedure:
Prior to the chemical stability measurement of a peptide batch, its purity was determined through UPLC/MS. For stability testing the target concentration was 1 mg pure compound/ml. Therefore solutions from solid samples were prepared in a buffer system with a concentration of 1 mg/mL compound based on the previously determined % purity:
Chemical stability buffer system A) 25 mM acetate buffer pH 4.5, 3 mg/mL L-Methionine, 2.7 mg/mL m-cresol, 18 mg/mL Glycerol 85% Chemical stability buffer system B) 25 mM phosphate buffer pH 6.0, 3 mg/mL L-Methionine, 2.7 mg/mL m-cresol, 18 mg/mL Glycerol 85%
Peptide solutions were filtered through […] pore size and filled into aliquots under aseptic conditions. At starting point, UPLC-UV was performed by injection of 2 μl of the undiluted sample.
For chemical stability testing, aliquots were stored for 28 days at 5 and 40° C. After this time course the samples were centrifuged for 15 min at 2500 RCF. Then 2 μl of the undiluted supernatant were analysed with UPLC-UV.
The chemical stability was rated through the relative loss of purity calculated by the equation: [(purity at starting point)−(purity after 28 days at X° C.)]/(purity at starting point)]*100%
The purity is calculated as
[(peak area peptide)/(total peak area)]*100%
Peptide samples were prepared in Chemical stability buffer system A and the stability was assessed as described in Methods.

Data set [2] can be described thus: Thioflavin T (ThT) assay for physical stability (fibrillation). In kind it is physicochemical. To be noted: 3 mg/ml, 100 mM acetate pH 4.5 with m-cresol, 37° C. shaking. The method in brief: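 Peptides at 3 mg/ml final with 100 μM ThT final in 100 mM acetate pH 4.5 containing 2.7 mg/mL m-cresol, eight replicates. Stressed at 37° C by repeated cycles of 10 s shaking at 960 rpm and 50 s rest. Fluorescence read every 20 minutes; lag time in hours taken from the sigmoidal kinetic curve.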

The target of another data set is T3, human glucagon receptor (Homo sapiens, UniProt P47871).
T3 construct: expressed in transfected cells; host or cells: HEK-293
The experiment in a line: cAMP response (HTRF) of HEK-293 cells stably expressing human glucagon receptor. In kind it is cell-based. Conditions: Table 8; read-out: EC50 hGlucagon R. On the procedure: as §1, §2

Numbered stars: 1 amine (or outer) side, 2 acyl side, 3 side chain; on linkers, the order of the positions; unused ones are H or OH. Square brackets hold non-standard residues; d marks the D form. Side chains are listed from the residue outwards. Peptide text beside a SMILES is read from it. * marks the point of attachment. Adipoyl(4R-palmitoylamino) = CCCCCCCCCCCCCCCC(=O)N[C@H](CCC(=O)*)CC(=O)O; γGlu = O=C(O)[C@H](CCC(=O)[*:2])N[*:1]; Stearoyl = CCCCCCCCCCCCCCCCCC(=O)*; AEEA = NCCOCCOCC(=O)O; Aib = CC(C)(N)C(=O)O

T1 sequence (P43220 24-463): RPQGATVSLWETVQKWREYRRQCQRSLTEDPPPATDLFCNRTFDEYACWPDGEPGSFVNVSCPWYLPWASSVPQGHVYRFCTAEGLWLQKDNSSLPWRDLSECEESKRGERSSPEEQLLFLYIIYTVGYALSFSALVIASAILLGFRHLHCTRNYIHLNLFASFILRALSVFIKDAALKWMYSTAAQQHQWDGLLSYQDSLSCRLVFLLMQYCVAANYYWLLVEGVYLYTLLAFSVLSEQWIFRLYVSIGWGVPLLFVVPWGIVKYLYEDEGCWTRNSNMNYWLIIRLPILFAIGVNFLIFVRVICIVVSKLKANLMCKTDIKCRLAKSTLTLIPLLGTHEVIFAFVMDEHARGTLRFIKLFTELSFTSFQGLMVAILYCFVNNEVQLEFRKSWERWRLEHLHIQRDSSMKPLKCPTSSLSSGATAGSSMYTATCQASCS
T3 sequence (P47871 26-477): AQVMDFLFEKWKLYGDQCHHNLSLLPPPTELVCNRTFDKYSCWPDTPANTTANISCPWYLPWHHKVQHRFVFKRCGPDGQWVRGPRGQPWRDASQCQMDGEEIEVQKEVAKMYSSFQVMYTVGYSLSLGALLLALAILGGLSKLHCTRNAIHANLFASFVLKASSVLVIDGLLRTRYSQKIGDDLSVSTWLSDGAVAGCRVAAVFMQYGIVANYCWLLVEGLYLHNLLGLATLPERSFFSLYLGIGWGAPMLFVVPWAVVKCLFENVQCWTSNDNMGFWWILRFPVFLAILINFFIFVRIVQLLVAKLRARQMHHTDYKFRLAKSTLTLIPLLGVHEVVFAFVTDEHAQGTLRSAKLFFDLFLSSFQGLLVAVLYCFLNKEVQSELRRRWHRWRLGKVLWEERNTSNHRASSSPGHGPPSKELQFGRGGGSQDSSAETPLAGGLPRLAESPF

Usually EC50 stands for the concentration at which the effect is half-maximal. Turning to `CCCCCCCCCCCCCCCC(=O)N[C@H](CCC(=O)NCCOCCOCC(=O)N[C@@H](CCC(=O)NCCCC[C@H](NC(=O)[C@H](CC(C)C)NC(=O)[C@H](CCCCN)NC(=O)[C@H](CO)NC(=O)[C@H](CC(C)C)NC(=O)[C@H](CC(=O)O)NC(=O)[C@H](CO)NC(=O)[C@@H](NC(=O)[C@H](Cc1ccccc1)NC(=O)[C@@H](NC(=O)CNC(=O)[C@H](Cc1c[nH]cn1)NC(=O)C(C)(C)NC(=O)[C@@H](N)Cc1c[nH]cn1)[C@@H](C)O)[C@@H](C)O)C(=O)N[C@@H](CCC(=O)O)C(=O)N[C@@H](CCC(=O)O)C(=O)N[C@@H](CCC(N)=O)C(=O)N[C@@H](CCCNC(=N)N)C(=O)N[C@@H](CCC(N)=O)C(=O)N[C@@H](CCCCN)C(=O)N[C@@H](CCC(=O)O)C(=O)N[C@@H](Cc1ccccc1)C(=O)N[C@H](C(=O)N[C@@H](CCC(=O)O)C(=O)N[C@@H](Cc1c[nH]c2ccccc12)C(=O)N[C@@H](CC(C)C)C(=O)N[C@@H](CCCCN)C(=O)N[C@@H](C)C(=O)N[C@H](C)C(=O)NCC(=O)N[C@@H](Cc1c[nH]cn1)C(=O)N1CCC[C@H]1C(=O)N[C@@H](CO)C(=O)NC(C)(C)C(=O)N[C@@H](CCCCN)C(=O)N1CCC[C@H]1C(=O)N1CCC[C@H]1C(=O)N1CCC[C@H]1C(=O)N[C@@H](CCCCN)C(N)=O)[C@@H](C)CC)C(=O)O)CC(=O)O` [SEQ ID NO: 23, H-Aib-H-G-T-F-T-S-D-L-S-K-L-K[gGlu-AEEA-gAAA-Palm]-E-E-Q-R-Q-K-E-F-I-E-W-L-K-A-dAla-G-H-P-S-Aib-K-P-P-P-K-NH2] (H-H[Aib]HGTFTSDLSKLK([γGlu-AEEA-Adipoyl(4R-palmitoylamino)])EEQRQKEFIEWLKA[dA]GHPS[Aib]KPPPK-NH2), the EC50 turned out to be 1.4 pM at human GLP-1 receptor and 1.5 pM on human GIP receptor. For the same compound, the “Chemical stability [relative purity loss 28 days 40° C.] (%) at pH 4.5” value in data set [1] is reported as 8.6%. In data set [2], the “Lag time before increase” value is >45 h.

As to `CCCCCCCCCCCCCCCCCC(=O)N[C@@H](CCC(=O)NCCCC[C@H](NC(=O)[C@H](CC(C)C)NC(=O)[C@H](CCCCN)NC(=O)[C@H](CO)NC(=O)[C@H](CC(C)C)NC(=O)[C@H](CC(=O)O)NC(=O)[C@H](CO)NC(=O)[C@@H](NC(=O)[C@H](Cc1ccccc1)NC(=O)[C@@H](NC(=O)CNC(=O)[C@H](Cc1c[nH]cn1)NC(=O)C(C)(C)NC(=O)[C@@H](N)Cc1c[nH]cn1)[C@@H](C)O)[C@@H](C)O)C(=O)N[C@@H](CCC(=O)O)C(=O)N[C@@H](CCC(=O)O)C(=O)N[C@@H](CCC(N)=O)C(=O)N[C@@H](CCCNC(=N)N)C(=O)N[C@@H](CCC(N)=O)C(=O)N[C@@H](CCCCN)C(=O)N[C@@H](CCC(=O)O)C(=O)N[C@@H](Cc1ccccc1)C(=O)N[C@H](C(=O)N[C@@H](CCC(=O)O)C(=O)N[C@@H](Cc1c[nH]c2ccccc12)C(=O)N[C@@H](CC(C)C)C(=O)N[C@@H](CCCCN)C(=O)N[C@@H](C)C(=O)NCC(=O)NCC(=O)N1CCC[C@H]1C(=O)N1CCC[C@H]1C(=O)N[C@@H](CO)C(=O)NC(C)(C)C(=O)N[C@@H](CCCCN)C(=O)N1CCC[C@H]1C(=O)N1CCC[C@H]1C(=O)N1CCC[C@H]1C(=O)N[C@@H](CCCCN)C(N)=O)[C@@H](C)CC)C(=O)O` [SEQ ID NO: 21, H-Aib-H-G-T-F-T-S-D-L-S-K-L-K[gGlu-Stea]-E-E-Q-R-Q-K-E-F-I-E-W-L-K-A-G-G-P-P-S-Aib-K-P-P-P-K-NH2] (H-H[Aib]HGTFTSDLSKLK([γGlu-Stearoyl])EEQRQKEFIEWLKAGGPPS[Aib]KPPPK-NH2), the results for the EC50 on human GLP-1 receptor, on human glucagon receptor and at human GIP receptor were 3.4 pM, 1.9 pM and 2.6 pM, respectively. In data set [2], the “Lag time before increase” value is >45 h.
